# Laboratory results published in US8153693B2, “Compounds for the selective treatment of the intestinal immuno-inflammatory component of the celiac disease” (Giuliani International Limited, priority 2007, dated 2012).
# Test system: TNF
# Assay: Cytokine assay (ELISA) in culture liquids of duodenal biopsy organ cultures: TNF
# Assay type: cell-based, human
# Details: for TNF, PT + 5ASA C, Mean / TNF, PT + 5ASA C, Median: peptic-tryptic digest of gliadin (PT)
# Protocol: 3 groups of subjects were evaluated. The first (atrophic) group included 29 subjects with serum tests positive to antiendomysium and anti-transglutaminase antibodies, with a neo-diagnosis of celiac disease and gluten-containing diet. The second (Remission) group included 17 celiac disease subjects in clinical remission and gluten-free diet for at least 6 months. The third (Healthy) group included subjects not suffering from the celiac disease but suffering from inflammation of the gastro-enteric tract. […] The biopsies were washed in saline for two minutes at least three times. […] Three different amounts of medium are shared for the ELISA assay of Th1 and Th2 cytokines released in culture media.
# [1] = Atrophic population, N 21, Wilcoxon p = N.S.
# [2] = Positive control population, N 7
# [3] = Positive control population, N 7, Wilcoxon p = N.S.
# [4] = Remission population, N 15, Wilcoxon p = N.S.
smiles,measurement,setting,value
"Nc1ccc(O)c(C(=O)O)c1 [Compound 5ASA, mesalazine]","TNF, Medium + 5ASA C, Mean","Atrophic population, N 21",0.472
same,"TNF, Medium + 5ASA C, Median","Atrophic population, N 21",0.204
same,"TNF, Difference PT C/PT + 5ASA C, Median","Atrophic population, N 21, Wilcoxon p < 0.0001",0.0580
same,"TNF, Difference Medium C/Medium + 5ASA C, Mean",[1],0.0048
same,"TNF, Difference Medium C/Medium + 5ASA C, Median",[1],0.0150
same,"TNF, PT + 5ASA C, Mean","Atrophic population, N 21",0.414
same,"TNF, PT + 5ASA C, Median","Atrophic population, N 21",0.120
same,"TNF, Medium + 5ASA C, Mean",[2],0.259
same,"TNF, Medium + 5ASA C, Median",[2],0.229
same,"TNF, Difference Medium C/Medium + 5ASA C, Mean",[3],0.005
same,"TNF, Difference Medium C/Medium + 5ASA C, Median",[3],0.0040
same,"TNF, Difference PT C/PT + 5ASA C, Mean",[3],0.0226
same,"TNF, Difference PT C/PT + 5ASA C, Median",[3],0.0250
same,"TNF, PT + 5ASA C, Mean",[2],0.291
same,"TNF, Medium + 5ASA C, Mean","Remission population, N 15",0.894
same,"TNF, Medium + 5ASA C, Median","Remission population, N 15",0.571
same,"TNF, Difference PT C/PT + 5ASA C, Median","Remission population, N 15, Wilcoxon p = 0.005",0.221
same,"TNF, Difference Medium C/Medium + 5ASA C, Mean",[4],0.0541
same,"TNF, Difference Medium C/Medium + 5ASA C, Median",[4],0.0790
same,"TNF, PT + 5ASA C, Mean","Remission population, N 15",0.305
same,"TNF, PT + 5ASA C, Median","Remission population, N 15",0.545
